This note sets out measurements from patent US9464111B2, “Short peptides and a method of use as an antioxidant” (L'OREAL, priority 2014, dated 2016).

Where no end group is shown, it is not given here.

Type in all cases: biochemical
Test [1] can be described thus: SOD superoxide dismutase activity (USTM 193), in tubo. The following applies: Table II; for SOD/superoxide, Active25: cells marked (Active25). How it is done: (§1) In the screening standard testing for oxygen radical absorbance capacity (ORAC), hydroxyl radical absorbance capacity (HORAC), superoxide radical absorbance capacity (SORAC) and superoxide dismutase activity (SOD) were conducted with the test polypeptides. Testing was conducted according to USTM 190 (HORAC), USTM 191 (SORAC), USTM 192 (ORAC) and USTM 193 (SOAC) (SOD).
(§2) The peptides were tested in tubo for their antioxidant properties and tested against reference/known antioxidants. The evaluation of the antioxidant properties were conducted by determination of the ORAC (USTM 192), HORAC (USTM 190) and SOD (USTM 193) test methods.

Test [2] can be described thus: HORAC hydroxyl radical absorbance capacity (USTM 190), in tubo. Also on record: HORAC: unit not given here. The following applies: for HORAC/hydroxyl: Table II; for HORAC: Tables III-IX, unit not given. How it is done:
(§3) In the course of the study, polypeptides were prepared by conventional synthesis methods and screened in tubo for antioxidant activity for peroxyl radicals (ROO.), superoxide radicals (O2.^−) and hydroxyl radicals (.OH).
as §1, §2

Test [3] in a line: ORAC oxygen radical absorbance capacity (USTM 192), in tubo. On the set-up: ORAC: unit not given here. The conditions noted are these: for ORAC/peroxyl: Table II; for ORAC: Tables III-IX, unit not given. How it is done: as §3, §1, §2
Test [4] can be described thus: SORAC superoxide radical absorbance capacity (USTM 191), in tubo. The following applies: Tables III-VIII; for SORAC: result in words; for SORAC (IC25): cells marked (IC25). The procedure:
Tables I to IX shown below are a compilation of polypeptides studied by the inventors to ascertain those elements of the molecular structure that contribute to or negate antioxidant activity. In the course of the study, polypeptides were prepared by conventional synthesis methods and screened in tubo for antioxidant activity for peroxyl radicals (ROO.), superoxide radicals (O2.^−) and hydroxyl radicals (.OH).
In the screening standard testing for oxygen radical absorbance capacity (ORAC), hydroxyl radical absorbance capacity (HORAC), superoxide radical absorbance capacity (SORAC) and superoxide dismutase activity (SOD) were conducted with the test polypeptides. Testing was conducted according to USTM 190 (HORAC), USTM 191 (SORAC), USTM 192 (ORAC) and USTM 193 (SOAC) (SOD). Upon review of the results as indicated in the Tables, the inventors have discovered certain elements of the polypeptide structure as recited in claim 1 that are key contributors to determination of antioxidant activity.

As for `NCCC(=O)N[C@@H](Cc1c[nH]cn1)C(=O)O` [Carnosine, β-alanyl-histidine, reference compound], the “SOD/superoxide, Active50” value in test [1] is listed as 0 U/mg. In test [2], this compound displayed an HORAC/hydroxyl of 2099 μmol GAE/g. The compound further had an ORAC/peroxyl in test [3] of 354 μmol GAE/g.
Consider `O=C1O[C@H]([C@@H](O)CO)C(O)=C1O` [Vitamin C, reference compound], for which, in test [1], the “SOD/superoxide, Active50” value came out at 752 U/mg. In test [2], this compound displayed an HORAC/hydroxyl of 0 μmol GAE/g. In addition, the ORAC/peroxyl in test [3] came to 4456 μmol GAE/g.
For the compound Ac-DESLESTRRM-NH2 [AC-SNP4], the HORAC result in test [2] is listed as “No capacity”. Moreover, the ORAC result in test [3] was “No capacity”.
Consider Ac-EELMSDIKK-NH2 [AC-SYN2], for which the HORAC result in test [2] is given as “No capacity”. In test [3], the ORAC entry was “No capacity”.
With Ac-EEMLERQRR-NH2 [AC-SNP3], in test [2], the HORAC result is “No capacity”. In test [3], the ORAC result is reported as “No capacity”.
For the compound Ac-EEMQRRKKK-NH2 [AC-SNP5], the HORAC entry in test [2] was “No capacity”. The ORAC result in test [3] is “No capacity”.
Take Ac-EEVKRK-NH2 [AC-SYN1]: the HORAC entry in test [2] is on record as “No capacity”. Besides, in test [3], the ORAC entry is listed as “No capacity”.
Regarding Ac-KKKEEMQRR-NH2 [AC-SNP7], the HORAC entry in test [2] was “No capacity”. Also, in test [3], the ORAC entry is “No capacity”.
Take Ac-RRMLQLVEE-NH2 [AC-SNP1]: in test [2], the HORAC entry is “No capacity”. Further, the ORAC result in test [3] was “No capacity”.
As for “Ac-Valérate-EEMQRRKKK-NH2 ({Ac-Valérate}-EEMQRRKKK-NH2; not fully specified; printed as Ac-Valérate-EEMQRRKKK-NH2) [AC-SNP6]”, the HORAC result in test [2] was “No capacity”. Also, the ORAC result in test [3] is “No capacity”.
On to Ac-wRyR-NH2 [RED27], for which the SORAC result in test [4] is recorded as “No capacity”. Moreover, in test [3], the ORAC was 5342.
CWRYR-NH2 [RED11]: the SORAC result in test [4] is reported as “No capacity”. Further, in test [2], the HORAC is given as 625. Further, the ORAC in test [3] was found to be 2007.
In turn, HRHM [CP2.5] registered an HORAC in test [2] of 10192. In addition, the ORAC in test [3] is 952.
Consider HWPY [S1], for which the “SORAC (IC25)” value in test [4] was 13(IC25). Moreover, the ORAC in test [3] is reported as 5955.
As for HWRF [IMM1], the “SORAC (IC25)” value in test [4] is recorded as 5(IC25). In addition, the ORAC in test [3] came to 2422.
On to “HYHY [AO1, short chain polypeptide of the invention]”, for which the “SORAC (IC25)” value in test [4] was 6(IC25). In test [1], the “SOD/superoxide, Active25” value is given as 6 (Active25) U/mg. In test [2], this compound registered an HORAC/hydroxyl of 33489 μmol GAE/g and an HORAC of 33489. In test [3], this compound yielded an ORAC/peroxyl of 4748 μmol GAE/g and an ORAC of 4748.
On to KRKYWW-NH2 [RED2], for which the SORAC entry in test [4] is recorded as “No capacity”. In test [2], this compound returned an HORAC of 1063. Besides, the ORAC in test [3] came to 1837.
In turn, RRH [CP2.6] came in with an HORAC in test [2] of 41073.
Turning to RRHM [CP2], in test [4], the “SORAC (IC25)” value is given as 6(IC25). In test [2], the HORAC/hydroxyl is listed as 321448 μmol GAE/g and the HORAC is 321448. Moreover, in test [3], the ORAC/peroxyl came out at 1204 μmol GAE/g and the ORAC was 1204.
For the compound RYHM [AO2.1], in test [2], the HORAC/hydroxyl is on record as 132591 μmol GAE/g and the HORAC is given as 131574. In addition, in test [3], the ORAC/peroxyl is recorded as 5390 μmol GAE/g and the ORAC was 5390.
Take “RYHW [AO2, short chain polypeptide of the invention]”: the “SORAC (IC25)” value in test [4] is 4(IC25). The “SOD/superoxide, Active25” value in test [1] is recorded as 4 (Active25) U/mg. Also, in test [2], the HORAC/hydroxyl turned out to be 41882 μmol GAE/g and the HORAC is given as 41882. In test [3], this compound gave an ORAC/peroxyl of 9328 μmol GAE/g and an ORAC of 9328.
As to RwRyR-NH2 [RED26], the SORAC result in test [4] is “No capacity”. For the same compound, the ORAC in test [3] is recorded as 4461.
With RyR-NH2 [RED32], the SORAC entry in test [4] is listed as “No capacity”. The same compound gave an ORAC in test [3] of 3385.
For the compound WKYK-NH2 [RED25], the SORAC entry in test [4] is on record as “No capacity”. In test [2], this compound came in with an HORAC of 2476. The same compound gave an ORAC in test [3] of 4168.
For the compound “WRYR (not fully specified (C-terminus)) [RED23]”, the SORAC result in test [4] is recorded as “No capacity”. Also, the HORAC in test [2] was found to be 2089. This compound also came in with an ORAC in test [3] of 4091.
The like results for WRYR-NH2 [RED6] were, in that order, “No capacity”, 1548 and 4488.
In the case of WRYr-NH2 [RED19], the SORAC entry in test [4] is “No capacity”. Also, the HORAC in test [2] amounted to 1457. This compound came in with an ORAC in test [3] of 4350.
For WRyR-NH2 [RED21], in test [4], the “SORAC (IC25)” value is reported as 7(IC25). In test [2], this compound came in with an HORAC of 2472. The compound also came in with an ORAC in test [3] of 4816.
Regarding WrYR-NH2 [RED20], the SORAC entry in test [4] was “No capacity”. Besides, in test [2], the HORAC is 1666. Besides, in test [3], the ORAC worked out at 4448.
The like results for WrYr-NH2 [RED18] were, in that order, “No capacity”, 2982 and 4758.
As for YHFR [IMM2], the “SORAC (IC25)” value in test [4] is 5(IC25). This compound returned an HORAC in test [2] of 3036.
For YWPW [S2], the SORAC entry in test [4] is given as “No capacity”. In addition, in test [3], the ORAC is 5917.
The compound YkYkYk [RED34] registered an HORAC in test [2] of 1053. The compound also came in with an ORAC in test [3] of 355.
Take fkwR-NH2 [RED9]: the SORAC entry in test [4] was “No capacity”. The same compound yielded an HORAC in test [2] of 752. In test [3], this compound showed an ORAC of 2202.
For kfRw-NH2 [RED7], the SORAC result in test [4] is listed as “No capacity”. Further, the HORAC in test [2] was determined as 1124. For the same compound, in test [3], the ORAC turned out to be 2120.
The corresponding values for wRYR-NH2 [RED24] are “No capacity”, 2225 and 4077.
For wRwR-NH2 [RED31], the SORAC result in test [4] was “No capacity”. In test [3], this compound came in with an ORAC of 4652.
Take wRyR-NH2 [RED22]: the SORAC result in test [4] was “No capacity”. In test [2], this compound displayed an HORAC of 1686. This compound returned an ORAC in test [3] of 5383.
wRyRw-NH2 [RED29]: in test [4], the SORAC result is reported as “No capacity”. Besides, the ORAC in test [3] came to 5512.
As for wRyRy-NH2 [RED28], the “SORAC (IC25)” value in test [4] is on record as 3(IC25). Besides, in test [3], the ORAC is 5216.
